# Assays:
# [1] = molecular target: T1, M4 muscarinic receptor (Homo sapiens, UniProt P08173); experiment: Functional mobilization of intracellular calcium (FLIPR) in M4-CHO cells; type: cell-based; conditions: Table 4; for Emax: 100% efficacy is the maximum response obtained with the Carbachol control; for M4 Activity: modulating M4 receptor
# T1 construct: expressed in transfected cells; host or cells: CHO (M4-CHO)
# T1 sequence (P08173 1-479): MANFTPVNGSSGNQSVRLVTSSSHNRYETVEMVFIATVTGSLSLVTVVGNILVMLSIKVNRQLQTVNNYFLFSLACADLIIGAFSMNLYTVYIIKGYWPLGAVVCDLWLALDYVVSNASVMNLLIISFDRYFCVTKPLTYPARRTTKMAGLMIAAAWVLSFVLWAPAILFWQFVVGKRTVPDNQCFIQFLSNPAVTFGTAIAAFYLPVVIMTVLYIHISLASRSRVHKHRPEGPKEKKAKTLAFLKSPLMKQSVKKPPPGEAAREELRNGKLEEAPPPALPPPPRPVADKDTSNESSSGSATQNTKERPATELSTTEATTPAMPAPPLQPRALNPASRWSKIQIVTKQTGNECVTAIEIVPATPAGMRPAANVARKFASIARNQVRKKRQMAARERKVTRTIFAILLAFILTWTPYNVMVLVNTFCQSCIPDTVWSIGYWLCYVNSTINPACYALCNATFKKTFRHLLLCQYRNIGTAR
# Method in brief: (§1)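 Two modes: direct compound addition for agonism, or 15 min compound pre-incubation (or co-application) before carbachol at EC80 for inhibition. Calcium signal from Fluo-3 AM or Calcium 3 dye in CHO cells, 1 mM probenecid, pH 7.4, read 60 sec at 488/540 nm; DMSO 0.5% final.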
# [2] = molecular target: T2, M1 muscarinic receptor (Homo sapiens, UniProt P11229); experiment: Functional mobilization of intracellular calcium (FLIPR) in M1-CHO cells; type: cell-based; conditions: Table 4; for Emax: 100% efficacy is the maximum response obtained with the Carbachol control; for M1 Activity: modulating M1 receptor
# T2 construct: expressed in transfected cells; host or cells: CHO (M1-CHO)
# T2 sequence (P11229 1-460): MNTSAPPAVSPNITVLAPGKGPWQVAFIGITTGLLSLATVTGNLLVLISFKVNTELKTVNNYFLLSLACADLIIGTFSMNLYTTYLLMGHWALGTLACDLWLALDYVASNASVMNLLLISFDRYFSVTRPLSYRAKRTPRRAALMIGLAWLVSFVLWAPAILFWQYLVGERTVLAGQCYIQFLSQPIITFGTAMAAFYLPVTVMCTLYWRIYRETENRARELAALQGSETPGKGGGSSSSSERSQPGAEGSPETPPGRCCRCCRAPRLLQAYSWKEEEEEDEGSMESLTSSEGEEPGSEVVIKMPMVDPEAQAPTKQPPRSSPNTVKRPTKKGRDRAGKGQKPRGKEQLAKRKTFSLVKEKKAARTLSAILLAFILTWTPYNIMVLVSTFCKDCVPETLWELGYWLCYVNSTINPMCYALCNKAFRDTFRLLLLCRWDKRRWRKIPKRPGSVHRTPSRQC
# Method in brief: as §1
Structure (SMILES),Emax [1] [%],M4 Activity [1],Emax [2] [%],M1 Activity [2]
CCOC(=O)N1CCC(CN2CCC3(CC2)CN(C(C)=O)c2c(C(F)(F)F)cccc23)CC1 [compound 529],25 to 100,xx (activity was measured to be between 2.0 μM and 5.0 μM),25 to 100,x (activity was measured to be greater than 5.0 μM)
CC(=O)N[C@H]1CC2(CCN(Cc3ccoc3)CC2)c2ccccc21 [compound 530],< 25,x (activity was measured to be greater than 5.0 μM),< 25,x (activity was measured to be greater than 5.0 μM)
CN(C)C(=O)N1CC2(CCN(C3CCN(C(=O)c4cnccn4)CC3)CC2)c2cc(F)ccc21 [compound 531],< 25,x (activity was measured to be greater than 5.0 μM),< 25,x (activity was measured to be greater than 5.0 μM)
CC(=O)N1CC2(CCN(CC3CCN(C(=O)OC4CCC4)CC3)CC2)c2cc(F)ccc21 [compound 532],< 25,x (activity was measured to be greater than 5.0 μM),< 25,x (activity was measured to be greater than 5.0 μM)
CC(=O)N[C@H]1CC2(CCN(CC(=O)N3CC=CC3)CC2)c2ccccc21 [compound 533],< 25,x (activity was measured to be greater than 5.0 μM),< 25,x (activity was measured to be greater than 5.0 μM)
CN(C)C(=O)N1CC2(CCN(C3CCN(c4ccc(F)cc4)CC3)CC2)c2cc(F)ccc21 [compound 534],< 25,xxx (activity was measured to be less than 2.0 μM),25 to 100,xx (activity was measured to be between 2.0 μM and 5.0 μM)
CN(C)C(=O)N1CC2(CCN(C3CCN(c4cccnc4)CC3)CC2)c2cc(F)ccc21 [compound 535],25 to 100,xxx (activity was measured to be less than 2.0 μM),25 to 100,xxx (activity was measured to be less than 2.0 μM)
OC1CC2(CCN([C@@H]3C[C@H]4CC[C@@H]3C4)CC2)c2ccccc21 (stereo partly shown) [compound 536],25 to 100,xxx (activity was measured to be less than 2.0 μM),25 to 100,xxx (activity was measured to be less than 2.0 μM)
CCOC(=O)N1CCC(N2CCC3(CC[C@H](NC(C)=O)c4ccccc43)CC2)CC1 [compound 537],25 to 100,xxx (activity was measured to be less than 2.0 μM),25 to 100,xxx (activity was measured to be less than 2.0 μM)
CCOC(=O)N1CCC(N2CCC3(C[C@H](NC(C)=O)c4cc(F)ccc43)C2)CC1 (stereo partly shown) [compound 538],< 25,x (activity was measured to be greater than 5.0 μM),25 to 100,xx (activity was measured to be between 2.0 μM and 5.0 μM)
COCCOC(=O)N1CCC(N2CCC3(CC2)CN(C(C)=O)c2ccccc23)CC1 [compound 539],25 to 100,xx (activity was measured to be between 2.0 μM and 5.0 μM),25 to 100,xx (activity was measured to be between 2.0 μM and 5.0 μM)
COC(=O)N1CC[C@@H](CN2CCC3(CC2)CN(C(=O)N(C)C)c2ccc(F)cc23)C1 [compound 540],25 to 100,xxx (activity was measured to be less than 2.0 μM),25 to 100,xxx (activity was measured to be less than 2.0 μM)
CC(=O)NC1CCC2(CCN(CCC3CCCN(S(C)(=O)=O)C3)CC2)c2ccccc21 (stereo not shown) [compound 541],< 25,x (activity was measured to be greater than 5.0 μM),25 to 100,xxx (activity was measured to be less than 2.0 μM)
O=C(O)C1CC2(CCN(C3CCCC3)CC2)c2ccccc21 (stereo not shown) [compound 542],< 25,x (activity was measured to be greater than 5.0 μM),< 25,x (activity was measured to be greater than 5.0 μM)
CCOC(=O)N1CCC(N2CCC3(CC2)CN(C(=O)C2(O)CC2)c2ccc(F)cc23)CC1 [compound 543],25 to 100,xxx (activity was measured to be less than 2.0 μM),> 100,xxx (activity was measured to be less than 2.0 μM)
CN(C)C(=O)N1CC2(CCN(C3CCN(C(=O)CC4CCCC4=O)CC3)CC2)c2cc(F)ccc21 (stereo not shown) [compound 544],< 25,xx (activity was measured to be between 2.0 μM and 5.0 μM),25 to 100,xx (activity was measured to be between 2.0 μM and 5.0 μM)
CC(=O)N1CC2(CCN(C3CCN(c4nc5ccccc5s4)CC3)CC2)c2ccccc21 [compound 545],< 25,x (activity was measured to be greater than 5.0 μM),< 25,x (activity was measured to be greater than 5.0 μM)
COc1cc2c(cc1OC)C1(CCN(C3C4CC5CC(C4)CC3C5)CC1)C[C@@H]2NC(C)=O (stereo partly shown) [compound 546],25 to 100,x (activity was measured to be greater than 5.0 μM),25 to 100,x (activity was measured to be greater than 5.0 μM)
CC(=O)N1CC2(CCN(C3CCNCC3)CC2)c2cc(F)ccc21 [compound 547],25 to 100,x (activity was measured to be greater than 5.0 μM),25 to 100,xx (activity was measured to be between 2.0 μM and 5.0 μM)
O=C(O)C1CC2(CCN(CC3CCCC3)CC2)c2ccccc21 (stereo not shown) [compound 548],< 25,x (activity was measured to be greater than 5.0 μM),< 25,x (activity was measured to be greater than 5.0 μM)
C#CCCOC(=O)N1CC[C@H](CN2CCC3(CC2)CN(C(C)=O)c2ccccc23)C1 [compound 549],< 25,x (activity was measured to be greater than 5.0 μM),< 25,x (activity was measured to be greater than 5.0 μM)
CC(=O)N1CC2(CCN(CC3CCN(C(=O)O[C@@H]4CCOC4)CC3)CC2)c2cc(C)ccc21 [compound 550],< 25,x (activity was measured to be greater than 5.0 μM),< 25,x (activity was measured to be greater than 5.0 μM)
CCOC(=O)N1CCC(N2CCC3(CC2)CN(C(C)=O)c2c(C(F)(F)F)cccc23)CC1 [compound 551],25 to 100,x (activity was measured to be greater than 5.0 μM),< 25,x (activity was measured to be greater than 5.0 μM)
COc1ccccc1N1CCC(N2CCC3(CC2)CN(C(=O)N(C)C)c2ccc(F)cc23)CC1 [compound 552],25 to 100,x (activity was measured to be greater than 5.0 μM),25 to 100,x (activity was measured to be greater than 5.0 μM)
C#CCCC(=O)N1CCC(N2CCC3(CC2)CN(C(=O)N(C)C)c2ccc(F)cc23)CC1 [compound 553],< 25,xxx (activity was measured to be less than 2.0 μM),25 to 100,xxx (activity was measured to be less than 2.0 μM)

# From patent US7786141B2 (Vertex Pharmaceuticals Incorporated, priority 2004, dated 2010)
